Experimental data reported in patent US11078188B2, “Dihydroquinoxaline bromodomain recognition protein inhibitor, preparation method and use thereof” (SHANGHAI INSTITUTE OF MATERIA MEDICA, CHINESE ACADEMY OF …, priority 2017, dated 2021).

Legend:
2D6 = 2D6 (Homo sapiens (Human), UniProt P10635); assay: Direct inhibition test (DI test), CYP 2D6; format: in vitro ADME; conditions: human liver microsomes 0.2 mg/ml, 20 min
Protocol: (§1) The system which was 100 μl of human liver microsomes (final concentration: 0.2 mg/ml) was used for direct inhibition incubation. The system contained NADPH (final concentration: 1 mM), 10 μl compound, positive inhibitor cocktail (ketoconazole, 10 μl, quinidine 10 μl, sulfaphenazole 100 μl, naphthoflavone 10 μl, tranylcypromine 1000 μl), negative control 10 μl DMSO and mixed probe substrate (midazolam 10 μl, testosterone 100 μl, dextromethorphan 10 μl, diclofenac 20 μl, phenacetin 100 μl, mephenytoin 100 μl). The reaction was stopped after the system was incubated for 20 min. The relative activity of the enzyme was calculated by measuring the relative amount of production of the metabolite.

2C9 = 2C9 (Homo sapiens (Human), UniProt P11712); assay: Direct inhibition test (DI test), CYP 2C9; format: in vitro ADME; conditions: human liver microsomes 0.2 mg/ml, 20 min
Sequence of 2C9 (P11712 whole entry): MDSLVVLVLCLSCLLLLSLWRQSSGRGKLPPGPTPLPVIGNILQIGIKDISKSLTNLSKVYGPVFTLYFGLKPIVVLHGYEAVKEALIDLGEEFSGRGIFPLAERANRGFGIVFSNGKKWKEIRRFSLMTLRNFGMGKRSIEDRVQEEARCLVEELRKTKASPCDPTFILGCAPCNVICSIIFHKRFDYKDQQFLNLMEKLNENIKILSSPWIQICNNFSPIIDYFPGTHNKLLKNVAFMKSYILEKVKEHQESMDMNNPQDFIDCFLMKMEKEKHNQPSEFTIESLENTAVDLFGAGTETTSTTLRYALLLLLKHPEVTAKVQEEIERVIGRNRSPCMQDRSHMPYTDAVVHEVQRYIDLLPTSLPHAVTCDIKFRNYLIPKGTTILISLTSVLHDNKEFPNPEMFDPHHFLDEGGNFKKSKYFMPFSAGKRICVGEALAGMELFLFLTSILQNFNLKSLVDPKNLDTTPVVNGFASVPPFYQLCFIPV
Protocol: as §1

[1] = Metabolic stability in mouse liver microsomes; format: in vitro ADME; conditions: for microsomal CLint at 1 μM: read-out: mLM Clint
3A4 = 3A4 (Homo sapiens (Human), UniProt P08684); assay: Direct inhibition test (DI test), CYP 3A4; format: in vitro ADME; conditions: human liver microsomes 0.2 mg/ml, 20 min; for Direct inhibition rate (%) 3A4, second value: second of two values a/b (two 3A4 probes midazolam, testosterone; assignment not given); for Direct inhibition rate (%) 3A4, first value: first of two values a/b (two 3A4 probes midazolam, testosterone; assignment not given)
Sequence of 3A4 (P08684 whole entry): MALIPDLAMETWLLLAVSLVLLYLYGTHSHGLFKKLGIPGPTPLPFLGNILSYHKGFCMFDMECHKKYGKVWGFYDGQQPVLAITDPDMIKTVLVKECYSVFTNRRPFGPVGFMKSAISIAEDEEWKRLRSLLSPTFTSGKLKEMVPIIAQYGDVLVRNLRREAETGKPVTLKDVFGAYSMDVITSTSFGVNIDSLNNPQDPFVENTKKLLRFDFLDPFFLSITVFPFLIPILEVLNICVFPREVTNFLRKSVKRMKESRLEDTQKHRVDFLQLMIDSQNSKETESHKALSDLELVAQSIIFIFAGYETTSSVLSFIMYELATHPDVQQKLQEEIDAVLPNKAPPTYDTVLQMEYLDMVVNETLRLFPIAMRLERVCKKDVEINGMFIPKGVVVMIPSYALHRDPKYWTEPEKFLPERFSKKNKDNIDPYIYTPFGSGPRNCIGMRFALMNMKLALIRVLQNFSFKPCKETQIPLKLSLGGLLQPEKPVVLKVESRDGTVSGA
Protocol: as §1

CYP3A4 = CYP3A4 (Homo sapiens (Human), UniProt P08684); assay: Direct inhibition test (DI test), CYP 3A4; format: in vitro ADME; conditions: human liver microsomes 0.2 mg/ml, first of two values a/b (two 3A4 probes midazolam, testosterone; assignment not given), read-out: Direct inhibition rate (%) 3A4, first value
Sequence of CYP3A4 (P08684 whole entry): as above
Protocol: as §1

[2] = Metabolic stability in human liver microsomes; format: in vitro ADME; conditions: human liver microsomes 0.5 mg/ml, 1 μM compound, NADPH; for microsomal CLint at 1 μM: read-out: HLM Clint; for half-life at 1 μM: read-out: HLM t1/2
Protocol: The system which was 150 μl of human liver microsomes (final concentration: 0.5 mg/ml) was used for metabolic stability incubation. The system contained reduced coenzyme II (NADPH) (final concentration: 1 mM) and 1 μM compound, positive control or negative control. The reaction was terminated with acetonitrile containing (imiprozine, batch number: 3221; tinidazole, given) at 0 min, 5 min, 10 min, and 30 min, respectively. The mixture was vortexed for 10 min, centrifuged at 15000 rpm for 10 min, and 50 μl of the supernatant was injected into a 96-well plate. The metabolic stability of the compound was calculated by measuring the relative reduction in the original medicament.
(§2) HLM Clint (μl/min/mg) refers to the clearance rate of compounds in human liver microsomes having a unit of μl/min/mg; mLM Clint (μl/min/mg) refers to the clearance rate of compounds in mouse liver microsomes having a unit of μl/min/mg; HLM t1/2 (min) refers to the half-life of the compound in human liver microsomes having a unit of minutes; mLM t1/2 (min) refers to the half-life of the compound in mouse liver microsomes having a unit of minutes. TDI means that the mechanism inhibition test of compounds on CYP enzyme evaluates whether the compound has time-dependent inhibition of the enzyme.

CYP enzyme = assay: Mechanistic inhibition test (TDI test); format: in vitro ADME; conditions: human liver microsomes 0.2 mg/ml; mechanism inhibition if kobs greater than 200
Protocol: The system which was 200 μl of human liver microsomes (final concentration: 0.2 mg/ml) was used for mechanistic inhibition incubation. The system contained 10 μl compound, mixed positive inhibitor (Troleandomycin 10 μl, Paroxetine 10 μl, Tienilic acid 10 μM, Furafylline 10 μl) or 10 μl negative control PRO. After NADPH (final concentration: 1 mM) or PBS was added, the system was incubated for 0 min, 5 min, 10 min and 30 min, then NADPH (final concentration: 1 mM) and mixed probe substrate (Midazolam 5 μM, Testosterone 50 μl, Dextromethophan 5 μM, Diclofenac 10 μl, Phenacetin 5 0 μM, S-(+)-mephenytoin 50 μl) were added and incubated for 10 min. Then the reaction was stopped. The test for positive inhibitor CYP2C19 was carried out alone, the inhibitor S-(+)-fluoxetine was 100 μM. The enzyme activity was calculated by measuring the relative production amount of metabolite. kobs was calculated.
as §2

BRD4 (I) = BRD4 (I) (Homo sapiens (Human), UniProt O60885); assay: Fluorescence anisotropy (FA) binding test on BRD4 (I); conditions: BRD4 (I) 10 nM, fluorescent (+)-JQ1 substrate 5 nM, read-out: BRD4 (1) IC50
Protocol: The binding activity of the compound to BRD4 (I) was tested using a fluorescence anisotropy (FA) method. The principle of FA test is to calculate and analyze the fluorescence polarization values in the horizontal and vertical directions by detecting the change of molecular weight before and after the interaction of fluorescein-labeled small molecules with other molecules. If the equilibrium of the binding between the fluorescently labeled small molecule and macromolecule is established, it will move slowly when excited, and the measured fluorescence polarization value will increase. If the binding between the fluorescently labeled small molecule and the macromolecule is replaced by another ligand, its rotation or flipping speed in the free state will be faster, and the emitted light will be depolarized relative to the plane of the excitation light, and the measured polarized light value will decrease to calculate the fluorescence anisotropy of the sample.
Expression and purification of the BRD4(I) recognition domain: colonies of newly transformed plasmid DNA from E. coli BL21(DE3)-condon plus-RIL cells were cultivated in 50 mL of Terrific Broth medium containing 50 μg/mL kanamycin and 34 μg/mL chloramphenicol at 37° C. overnight (starting culture). The starting culture was then diluted 100-fold in 1 L of fresh TB medium and the cells were grown at 37° C. to an optical density of about 0.8 at OD600 and then the temperature was lowered to 16° C. When the system was equilibrated at 16° C., the optical density at OD600 was approximately 1.2, and protein expression was induced with 0.2 mmol of isopropyl-β-D-thiogalactopyranoside (IPTG) overnight at 16° C. Bacteria were harvested by centrifugation (4000×g, 20 minutes, 4° C.) and stored as a pellet at −80° C. The cells expressing His 6-tagged protein was resuspend in lysis buffer [50 mmol 4-hydroxyethylpiperazineethanesulfonic acid (HEPES), 25° C., pH 7.5, 500 mmol NaCl, 10 mmol imidazole, 5% glycerol and freshly added 0.5 mmol of tris(2-carboxyethyl)phosphine hydrochloride (TCEP) and 1 mmol of phenylmethanesulfonyl fluoride (PMSF)] and lysed at 4° C. using JN 3000PLUS high pressure homogenizer (JNBIO-Guangzhou, China). The lysate was clarified by centrifugation (12,000×g for 1 hour at 4° C.) and applied to a nickel-nitriloacetate agarose column. The column was washed once with 50 mL of wash buffer containing 30 mmol of imidazole. The protein was eluted using imidazole in an elution buffer in a stepwise elution (100-250 mmol imidazole in 50 mmol HEPES, 25° C., pH 7.5, 500 mmol NaCl, 5% glycerol). All fractions were collected and monitored by SDS-polyacrylamide gel electrophoresis (Bio-Rad Criterion TM Precast Gels, 4-12% Bis-Tris, 1.0 mm, from Bio-Rad, CA). After 1 mmol of dithiothreitol (DTT) was added, the eluted proteins were treated with tobacco […] virus (TEV) protease overnight at 4° C. to remove the His6 tag. The protein was concentrated and further purified by size exclusion chromatography on a Superdex 75 16/60 HiLoad gel filtration column. The samples were monitored by SDS-polyacrylamide gel electrophoresis and concentrated to 8-10 mg/mL with gel filtration buffer, 10 mmol Hepes pH 7.5, 500 mM NaCl, 1 mmol DTT, and used for protein binding assays and crystallization.
The fluorogenic substrate was (+)-JQ1 linked to a fluorescent molecule and the working concentration was 5 nM. BRD4 (I) protein had 10 nM of working concentration and the total reaction system was 40 μL. The buffer was 50 mM 4-hydroxyethylpiperazineethanesulfonic acid (HEPES) pH 7.4, 150 mM NaCl, 0.5 mM 3[(3-cholamidopropyl)dimethylammonio]propanesulfonate (CHAPS). […] The final concentration of DMSO was chosen to be 0.2%, taking into account the solubility of the compound and the effect of DMSO on the assay. All measurements were made under these conditions. […]

CYP2C19 = CYP2C19 (Homo sapiens (Human), UniProt P33261); assay: Direct inhibition test (DI test), CYP 2C19; format: in vitro ADME; conditions: human liver microsomes 0.2 mg/ml, read-out: Direct inhibition rate (%) 2C19
Sequence of CYP2C19 (P33261 whole entry): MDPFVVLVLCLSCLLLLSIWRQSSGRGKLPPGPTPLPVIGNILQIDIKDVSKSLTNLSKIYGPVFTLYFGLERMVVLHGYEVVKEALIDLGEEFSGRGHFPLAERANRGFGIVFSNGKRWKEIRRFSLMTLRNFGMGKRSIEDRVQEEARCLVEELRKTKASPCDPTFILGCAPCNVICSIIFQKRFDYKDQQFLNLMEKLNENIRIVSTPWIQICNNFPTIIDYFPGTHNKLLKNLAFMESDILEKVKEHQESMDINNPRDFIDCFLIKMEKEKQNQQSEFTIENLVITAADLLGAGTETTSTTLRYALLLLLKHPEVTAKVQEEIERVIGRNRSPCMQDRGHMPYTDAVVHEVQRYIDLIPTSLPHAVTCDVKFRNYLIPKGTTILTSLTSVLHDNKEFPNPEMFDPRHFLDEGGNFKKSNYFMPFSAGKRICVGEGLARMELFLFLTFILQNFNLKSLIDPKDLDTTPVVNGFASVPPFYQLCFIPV
Protocol: as §1

CYP2D6 = CYP2D6 (Homo sapiens (Human), UniProt P10635); assay: Direct inhibition test (DI test), CYP 2D6; format: in vitro ADME; conditions: human liver microsomes 0.2 mg/ml, read-out: Direct inhibition rate (%) 2D6
Sequence of CYP2D6 (P10635 whole entry): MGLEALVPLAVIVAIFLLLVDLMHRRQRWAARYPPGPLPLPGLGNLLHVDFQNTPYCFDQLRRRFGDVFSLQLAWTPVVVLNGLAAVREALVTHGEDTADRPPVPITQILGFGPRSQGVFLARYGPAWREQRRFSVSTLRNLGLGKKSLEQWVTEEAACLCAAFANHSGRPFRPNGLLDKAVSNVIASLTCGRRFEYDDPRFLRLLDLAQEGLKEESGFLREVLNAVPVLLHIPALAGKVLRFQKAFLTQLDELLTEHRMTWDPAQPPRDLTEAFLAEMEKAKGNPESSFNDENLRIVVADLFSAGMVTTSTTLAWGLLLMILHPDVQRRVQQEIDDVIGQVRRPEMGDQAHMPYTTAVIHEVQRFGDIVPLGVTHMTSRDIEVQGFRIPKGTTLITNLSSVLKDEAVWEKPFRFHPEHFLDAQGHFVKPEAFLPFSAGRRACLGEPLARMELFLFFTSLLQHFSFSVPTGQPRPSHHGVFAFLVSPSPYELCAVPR
Protocol: as §1

CYP2C9 = CYP2C9 (Homo sapiens (Human), UniProt P11712); assay: Direct inhibition test (DI test), CYP 2C9; format: in vitro ADME; conditions: human liver microsomes 0.2 mg/ml, read-out: Direct inhibition rate (%) 2C9
Sequence of CYP2C9 (P11712 whole entry): as the sequence (P11712 whole entry) above
Protocol: as §1

[3] = test system: human myeloma cells MM.1S; assay: MM.1S cell viability, CCK-8 method; format: cell-based
Protocol: The MM.1S cell line was tested for cell viability. The test methods were as follows: human myeloma cells MM.1S were treated with compound for 72 h, and the proliferation inhibition effect and degree of the compound were detected by CCK-8 method.

DLBCL cells = conditions: cited from earlier work
[4] = test system: MM.1S nude mice xenografts; assay: Growth of MM.1S nude mice xenografts in vivo; set-up: species or system Balb/C nude mice; conditions: 50 mg/kg qd/14 po
Protocol: Balb/C nude mice (6 weeks, female, Beijing Huafukang Biotechnology Co., Ltd.) were purchased, and the animals were conditioned for about one week before the test. MM.1S cells were cultured in vitro, and the cells in logarithmic growth phase were resuspended in serum-free RPMI1640 medium to adjust the cell concentration. The cell suspension was subcutaneously injected into forefoot armpit of the Balb/C nude mice with a syringe, and each animal was injected with 150 μL (8.0×10^6/mouse). When the average tumor volume grew to about ˜150 mm^3, the animals were divided into 4 groups containing solvent control group, 50 mg/kg OTX-015 group, and 20 and 50 mg/kg compound 6 groups by the randomized block method and each group contained six animals. […] During the administration period, the tumor diameter was measured twice a week, the body weight of the animals was weighed, the living state of the animals was observed, and abnormal conditions were recorded.
The formula for calculating tumor volume (TV): TV=½×a×b^2, where a and b represent length and width, respectively.
The relative tumor volume (RTV) was calculated based on the measured results, and the calculation formula was: RTV=Vt/V0. Wherein V0 was the measured tumor volume at the time of administration by cage (ie, d0), and Vt was the tumor volume at each measurement.
The relative tumor proliferation rate T/C (%) was calculated based on the measured results, and the calculation formula was as follows: T/C (%)=(TRTV/CRTV)×100%, TRTV: treatment group RTV; CRTV: negative control group RTV.

Sequence of 2D6 (P10635 whole entry): as the sequence (P10635 whole entry) above

Row | SMILES | half-life at 1 μM ([1]; read-out: MLM t1/2) [min] | microsomal CLint at 1 μM [1] [µL/min/mg] | Direct inhibition rate (%) 3A4, second value (3A4) [%] | inhibition at 20 min (CYP3A4) [%] | microsomal CLint at 1 μM [2] [µL/min/mg] | half-life at 1 μM [2] [min] | TDI (CYP enzyme) | IC50 (BRD4 (I)) [nM] | inhibition at 20 min (CYP2C19) [%] | inhibition at 20 min (CYP2D6) [%] | inhibition at 20 min (CYP2C9) [%] | Direct inhibition rate (%) 3A4, first value (3A4) [%] | other results
1 | C[C@@H]1C(=O)N(C)c2ccc(-c3nc(C(=O)N4CCCN(C)CC4)nn3-c3ccccc3)cc2N1C1CCCC1 [Example 8] | 22.4 | 62 | 6 | 5 | 58 | 23.9 | no | 9.8 | 35 |  |  |  | Direct inhibition rate (%) 2D6 (2D6): no; Direct inhibition rate (%) 2C9 (2C9): no
2 | Cc1ccc(-n2nc(C(=O)N3CCN(C)CC3)cc2-c2ccc3c(c2)N(C2CCCC2)[C@H](C)C(=O)N3C)cc1 [Example 26] | 27 | 52 | 37 | 35 | 66 | 21 | no | 5.1 | 34 | 4 | 39 |  | 
3 | Cc1ccc(-n2nc(C(=O)N3C[C@@H](C)N[C@@H](C)C3)cc2-c2ccc3c(c2)N(C2CCCC2)[C@H](C)C(=O)N3C)cc1 [Example 27] |  | 6 | 47 |  | 55 | 25 | no | 4.9 | 19 | 6 | 27 | 24 | half-life at 1 μM ([1]; read-out: half-lives in mouse liver microsomes): 248 min
4 | Cc1ccc(-n2nc(C(=O)N3CCN(C)CC3)nc2-c2ccc3c(c2)N(C2CC2)C(C)C(=O)N3C)cc1 (stereo not drawn) [Example 33] |  |  | 12 |  |  |  | no | 15.7 |  |  |  | 7 | MLM t1/2 [1]: 107 min; mLM Clint [1]: 13 µL/min/mg; HLM Clint [2]: 22 µL/min/mg; HLM t1/2 [2]: 62 min; IC50 ([3]; 72 h treatment, CCK-8): 10.7 ± 2.59 nM; inhibitory activity against the MM.1S cell line (in words) ([3]; compared with positive (+)-JQ1): better inhibitory activity against the MM.1S cell line than the positive (+)-JQ1
5 | Cc1sc2c(c1C)C(c1ccc(Cl)cc1)=N[C@@H](CC(=O)Nc1ccc(O)cc1)c1nnc(C)n1-2 [OTX-015, reference compound] |  |  |  |  |  |  |  |  |  |  |  |  | IC50 (DLBCL cells): 192 nM; RTV (mean SD) [4]: 603.15; T/C (%) [4]: 49.90%; TV (mm^3, mean) d0 ([4]; d0 (at start of administration)): 184.48 mm^3; TV (mm^3, mean) d14 ([4]; d14): 886.75 mm^3
